Reference: paper PMC11247486, “Improving the In Vivo Stability of [^52Mn]Mn(II) Complexes with 18-Membered Macrocyclic Chelators for PET Imaging” (Journal of Medicinal Chemistry, 2024)

Legend:
[1] = Ex vivo biodistribution after PET/CT; format: in vivo, mice
Description: (§1) [^52Mn]Mn-CHXPYAN and [^52Mn]Mn-PYAN radiocomplexes were evaluated in vivo through 90 min dynamic PET/CT imaging of heathy mice followed by an ex vivo biodistribution analysis. Similarly, [^52Mn]MnCl2 was also studied as a control.
(§2) [^52Mn]Mn-CHXPYAN and [^52Mn]Mn-PYAN were synthesized with molar specific activities of 80 and 60 MBq/μmol, respectively. 1.04 ± 0.07 MBq (28 ± 2 μCi) of the radiocomplexes in 100 μL injection doses was prepared. The mice (n = 4 per group) were anesthetized with 2.5% isoflurane in oxygen and were injected via the retroorbital sinus. For comparison purposes, 1.04 ± 0.07 MBq (28 ± 2 μCi) of [^52Mn]MnCl2, pH 7 was also injected. After injection, mice were imaged on a Sofie GNEXT PET/CT scanner for a 90 min dynamic scan (9 frames of 10 min each) followed by a 3 min CT at 80 kVp for anatomical reference. PET images were reconstructed via 3D-OSEM (Ordered Subset Expectation Maximization) algorithm (24 subsets and 3 iterations), with random, attenuation, and decay correction, and CT was reconstructed with the modified Feldkamp algorithm and analyzed using VivoQuant 4.0 (Invicro Imaging Service and Software, Boston MA) software. After imaging, mice were euthanized, and organs were collected, weighed, and counted for associated radioactivity on an automated gamma counter. Radioactivity uptake was calculated as the percent injected dose per gram of tissue (% ID/g). Following the reconstruction of the images, ROIs (heart, liver, kidneys, muscle, and bone) were hand-drawn to determine the SUVs using the VivoQuant imaging software.

[2] = Dynamic PET/CT imaging, SUVmean analysis; format: in vivo; settings: healthy mice, 1.5 h postinjection
Description: as §1
Regions of interest (ROIs) were manually drawn using CT images to determine the standard uptake value (SUVmean) using VivoQuant imaging software.
as §2

[3] = Serum stability of the 52Mn radiocomplexes, mouse serum; format: in vitro ADME; settings: for intact complex / % activity of pellet / % activity of supernatant: 37 °C; for intact complex: 5 days
Description: (§3) The ^52Mn radiocomplexes were incubated with human or mouse serum at 37 °C. 50 μL of the radiocomplexes in PBS was combined with 500 μL of serum in triplicate and incubated at 37 °C for over 5 days. At indicated time points, 50 μL of the reaction mixture was removed and proteins were precipitated by addition of 50 μL of methanol. The precipitated proteins were centrifuged before iTLC measurements were performed over a period of 5 days on the supernatant. All the radio-TLC chromatograms for evaluation of stabilities are available in the Supporting Information section as Figures S9–S12.

[4] = DTPA challenge of the radiocomplexes; format: physicochemical; settings: DTPA (5 equiv), 37 °C
Description: (§4) Assessment of the stability and kinetic inertness of the radiocomplexes before in vivo evaluation was conducted to assess the possibilities of transchelation. In vitro stability assays including incubating the radiocomplexes with an excess (100 μM) of biologically relevant metal ions (Mg^2+, Zn^2+, Fe^2+, and Cu^2+), DTPA, and mouse and human serum were conducted.
(§5) For metal challenge studies, a 10 molar excess of 100 μM of metal ions in chloride solutions including CuCl2, ZnCl2, FeCl2, and MgCl2 relative to ligand concentration was incubated with the radiocomplexes at 37 °C. A 5 molar excess of DTPA was also added to compete with ^52Mn in the radiocomplexes. Decomplexation was monitored by radio-iTLC over a period of 5 days.

[5] = Serum stability of the 52Mn radiocomplexes, human serum; format: in vitro ADME; settings: for intact complex / % activity of pellet / % activity of supernatant: 37 °C; for intact complex: 5 days
Description: as §3

[6] = Metal challenge of the radiocomplexes; format: physicochemical
Description: as §4, §5

[7] = healthy mice, 1.5 h postinjection, mean ± SD, n = 4

## [52Mn+2].c1cc2nc(c1)CNCCNCc1cccc(n1)CNCCNC2 [[^52Mn]Mn-PYAN]
[1]; [7]
  Biodistribution, Blood: 0.70 ± 0.20 % ID/g
  Biodistribution, Brain: 0.45 ± 0.09 % ID/g
  Biodistribution, Fat: 1.03 ± 0.50 % ID/g
  Biodistribution, Femur: 0.80 ± 0.30 % ID/g
  Biodistribution, Heart: 1.85 ± 0.71 % ID/g
  Biodistribution, Kidney: 63.34 % ID/g
  Biodistribution, Liver: 30.39 ± 11.46 % ID/g
  Biodistribution, Lungs: 1.28 ± 0.51 % ID/g
  Biodistribution, Muscle: 0.18 ± 0.05 % ID/g
  Biodistribution, Pancreas: 2.41 ± 1.60 % ID/g
  Biodistribution, Skin: 0.32 ± 0.18 % ID/g
  Biodistribution, Spleen: 1.33 ± 0.93 % ID/g
  Biodistribution, Stomach: 1.29 ± 0.53 % ID/g
[1]; mouse, in vivo, 1.5 h
  Biodistribution, L. Intestine: 2.69 ± 0.82 % ID/g
  Biodistribution, S. Intestine: 13.00 ± 2.35 % ID/g
[2]
  SUVmean, kidneys: 1.70 ± 0.26
  SUVmean, liver: 0.77 ± 0.14
[3]
  intact complex: 90.67 ± 1.12%
[4]; day 1
  intact complex: 2.32 ± 0.66%
[5]
  intact complex: 92.78 ± 1.22%
[6]; 10 molar excess of Cu^2+, day 1
  intact complex: < 4%
[6]; 10 molar excess of Zn^2+, day 1
  intact complex: < 4%

## [52Mn+2].c1cc2nc(c1)CN[C@@H]1CCCC[C@H]1NCc1cccc(n1)CN[C@@H]1CCCC[C@H]1NC2 [[^52Mn]Mn-CHXPYAN]
[1]; [7]
  Biodistribution, Blood: 0.14 ± 0.01 % ID/g
  Biodistribution, Brain: 0.03 ± 0.01 % ID/g
  Biodistribution, Fat: 0.11 ± 0.13 % ID/g
  Biodistribution, Femur: 0.09 ± 0.04 % ID/g
  Biodistribution, Heart: 0.21 ± 0.01 % ID/g
  Biodistribution, Kidney: 11.27 ± 1.11 % ID/g
  Biodistribution, L. Intestine: 3.45 ± 1.44 % ID/g
  Biodistribution, Liver: 1.72 ± 0.93 % ID/g
  Biodistribution, Lungs: 0.26 ± 0.12 % ID/g
  Biodistribution, Muscle: 0.02 ± 0.01 % ID/g
  Biodistribution, Pancreas: 0.20 ± 0.09 % ID/g
  Biodistribution, S. Intestine: 2.32 ± 0.83 % ID/g
  Biodistribution, Skin: 0.08 ± 0.04 % ID/g
  Biodistribution, Spleen: 0.22 ± 0.18 % ID/g
  Biodistribution, Stomach: 0.08 ± 0.04 % ID/g
[2]
  SUVmean, kidneys: 0.20 ± 0.03
  SUVmean, liver: 0.10 ± 0.02
[3]
  intact complex: 96.31 ± 1.34%
[3]; day 1, average
  % activity of pellet: 10.33%
  % activity of supernatant: 89.66%
[3]; day 2, average
  % activity of pellet: 10.82%
  % activity of supernatant: 89.18%
[3]; day 3, average
  % activity of pellet: 12.07%
  % activity of supernatant: 87.93%
[3]; day 4, average
  % activity of pellet: 14.33%
  % activity of supernatant: 85.66%
[3]; day 5, average
  % activity of pellet: 12.14%
  % activity of supernatant: 87.67%
[3]; all time points
  radioactivity associated with the protein pellet: < 15%
[4]; day 5
  intact complex: 5.73 ± 0.25%
[5]
  intact complex: 98.04 ± 0.18%
[5]; day 1, average
  % activity of pellet: 13.09%
  % activity of supernatant: 86.91%
[5]; day 2, average
  % activity of pellet: 12.54%
  % activity of supernatant: 87.45%
[5]; day 3, average
  % activity of pellet: 14.46%
  % activity of supernatant: 85.54%
[5]; day 4, average
  % activity of pellet: 10.33%
  % activity of supernatant: 89.66%
[5]; day 5, average
  % activity of pellet: 9.31%
  % activity of supernatant: 90.7%
[5]; all time points
  radioactivity associated with the protein pellet: < 15%
[6]; 10 molar excess of Cu^2+, day 5
  intact complex: 14.56 ± 1.09%
[6]; 10 molar excess of Zn^2+, day 5
  intact complex: 8.14 ± 1.76%
